Columns and labels:
NDM-1 = NDM-1 (Klebsiella pneumoniae, UniProt C7C422); assay: biochemical; type: biochemical; details: CCF2-FA fluorescence assay, 2 hours at 25° C.
Method in brief: (§1)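 IC50s come from 4-parameter fits of inhibition versus inhibitor concentration, tested from 20 μM down to 0.00063 μM. Enzyme, CCF2-FA (1.25 μM) and inhibitor react 2 h at 25° C, pH 7, with 10 μM ZnSO4 and 0.005% Tween-20.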

[1] = system: Escherichia coli expressing NDM-1 (CLB30016); type: cell-based; details: with imipenem 1 μg/ml; 95% inhibition of bacterial growth
Method in brief: (§2)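 MITC95 denotes the minimal test-compound level that, combined with 1 μg/ml imipenem, blocks 95% of bacterial growth, measured by absorbance. Overnight-grown clinical isolates were diluted 1:100 in CAMHB and incubated with both agents at 35° C for 22–24 h.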

[2] = system: Serratia marcescens expressing IMP-1 (CL5741); type: cell-based; details: with imipenem 1 μg/ml; 95% inhibition of bacterial growth
Method in brief: as §2

[3] = system: Klebsiella pneumoniae expressing VIM-1 (IHMA599644); type: cell-based; details: with imipenem 1 μg/ml; 95% inhibition of bacterial growth
Method in brief: as §2

[4] = system: P. aeruginosa MB9798 (efflux+, IMP-1 plasmid); details: for MB9798 MITC95 P. aeruginosa uM Efflux WT: efflux + (MB9798) strain, imipenem at 2 μg/mL, in the presence of a class A, C, D serine β-lactamase inhibitor closely related to relebactam; for Efflux ratio: fold difference between efflux+ (MB9798) and efflux− (MB9799) strains
Method in brief: (§3)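 PAO1-derived isogenic pair (oprD+, inducible AmpC), efflux+ MB5919 or efflux− MB5890 parent, carrying an electroporated IMP-1 plasmid from a clinical isolate. Microbroth MIC with fixed imipenem and/or ceftazidime (usually CLSI breakpoint) plus fixed class A/C inhibitor; MBL inhibitor serially titrated, concentration restoring susceptibility recorded.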

VIM-1 = VIM-1 (Pseudomonas aeruginosa (strain ATCC 15692 / DSM 22644 / CIP 104116 / JCM 14847 / LMG 12228 / 1C / PRS 101 / PAO1), UniProt A0A0F7KYQ8); assay: biochemical; details: CCF2-FA fluorescence assay, 2 hours at 25° C.; read-out: VIM1 IC50
Method in brief: as §1

IMP-1 = IMP-1 (Serratia marcescens, UniProt P52699); assay: biochemical; details: CCF2-FA fluorescence assay, 2 hours at 25° C.; read-out: IMP1 IC50
Method in brief: as §1

[5] = system: P. aeruginosa MB9799 (efflux-, IMP-1 plasmid); type: cell-based, Pseudomonas aeruginosa; details: efflux − (MB9799) strain; imipenem at 2 μg/mL; in the presence of a class A, C, D serine β-lactamase inhibitor closely related to relebactam
Method in brief: as §3

VIM-2 = VIM-2 (Escherichia coli, UniProt Q5U7L7); assay: biochemical; details: CCF2-FA fluorescence assay; read-out: VIM2 IC50

Sequence of IMP-1 (P52699 whole entry, looked up, species assumed): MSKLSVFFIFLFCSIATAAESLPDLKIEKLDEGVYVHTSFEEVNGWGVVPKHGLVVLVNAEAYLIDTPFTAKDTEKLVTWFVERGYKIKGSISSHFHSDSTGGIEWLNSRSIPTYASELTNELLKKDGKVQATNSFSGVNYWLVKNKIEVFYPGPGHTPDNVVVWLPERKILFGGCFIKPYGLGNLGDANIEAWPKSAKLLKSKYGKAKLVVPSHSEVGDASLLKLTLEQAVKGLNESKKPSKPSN
Sequence of NDM-1 (C7C422 whole entry, looked up, species assumed): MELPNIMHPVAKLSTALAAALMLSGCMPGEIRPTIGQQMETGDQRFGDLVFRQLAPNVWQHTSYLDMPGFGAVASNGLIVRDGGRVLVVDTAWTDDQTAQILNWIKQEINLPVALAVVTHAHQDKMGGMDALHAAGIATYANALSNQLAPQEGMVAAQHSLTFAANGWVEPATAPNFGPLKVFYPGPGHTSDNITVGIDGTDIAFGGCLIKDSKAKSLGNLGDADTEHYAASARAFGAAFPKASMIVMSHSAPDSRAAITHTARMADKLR

SMILES | IC50 (NDM-1) [nM] | CLB30016 E. coli MITC95 NDM [1] [µM] | CL5741 S. marcescens MITC95 IMP [2] [µM] | IHMA599644 K. pneumoniae MITC95 VIM [3] [µM] | MB9798 MITC95 P. aeruginosa uM Efflux WT [4] [µM] | Efflux ratio [4] | IC50 (VIM-1) [nM] | IC50 (IMP-1) [nM] | MB9799 MITC95 P. aeruginosa uM Efflux Mutant [5] [µM] | IC50 (VIM-2) [nM]
CN(C)C1(C)CN(c2ccc(S(=O)(=O)N[C@@H]3CCNC3)c(S(N)(=O)=O)c2-c2nnn[nH]2)C1 [Example 114, 4-[3-(dimethylamino)-3-methylazetidin-1-yl]-N1-[(3R)-pyrrolidin-3-yl]-3-(1H-tetrazol-5-yl)benzene-1,2-disulfonamide] | 12 | 1.56 | 3.13 | 3.13 | 12.50 | 4.00 | 1.24 | 50.5 | 3.13 | 4.27
CN1CCOC2(C1)CN(c1ccc(S(=O)(=O)N[C@@H]3CCNC3)c(S(N)(=O)=O)c1-c1nnn[nH]1)C2 [Example 115, 4-(8-methyl-5-oxa-2,8-diazaspiro[3.5]non-2-yl)-N1-[(3R)-pyrrolidin-3-yl]-3-(1H-tetrazol-5-yl)benzene-1,2-disulfonamide] | 6.14 | 0.39 | 0.78 | 3.13 | 12.50 | 16.00 | 2.1 | 6.06 | 0.78 | 19.2
COC1(CN(C)C)CN(c2ccc(S(=O)(=O)N[C@@H]3CCNC3)c(S(N)(=O)=O)c2-c2nnn[nH]2)C1 [Example 116, 4-{3-[(dimethylamino)methyl]-3-methoxyazetidin-1-yl}-N1-[(3R)-pyrrolidin-3-yl]-3-(1H-tetrazol-5-yl)benzene-1,2-disulfonamide] | 29.3 | 1.56 | 1.56 | 3.13 | 3.13 | 2.00 | 6.97 | 4.62 | 1.56 | 63.9
CS(=O)(=O)CCN1CCN(c2ccc(S(=O)(=O)NC[C@H](O)CN)c(S(N)(=O)=O)c2-c2nn[nH]n2)CC1 [Example 117, (R)—N1-(3-amino-2-hydroxypropyl)-4-(4-(2-(methylsulfonyl)ethyl)piperazin-1-yl)-3-(2H-tetrazol-5-yl)benzene-1,2-disulfonamide] | 0.94 | 3.13 | 0.78 | 6.25 | 12.50 | 4.00 | 2.58 | 0.55 | 3.13 | 2.28
NC[C@@H](O)CNS(=O)(=O)c1ccc(N2CCC(C(N)=O)C2)c(-c2nn[nH]n2)c1S(N)(=O)=O (stereo partly drawn) [Example 118, 1-(4-(N—((R)-3-amino-2-hydroxypropyl)sulfamoyl)-3-sulfamoyl-2-(2H-tetrazol-5-yl)phenyl)pyrrolidine-3-carboxamide] | 1.55 | 1.56 | 1.56 | 3.13 | 1.56 | 1.00 | 1.2 | 1.25 | 1.56 | 2.44
NCC(=O)N1CCN(c2ccc(S(=O)(=O)NC[C@H](O)CN)c(S(N)(=O)=O)c2-c2nn[nH]n2)CC1 [Example 119, (R)—N1-(3-amino-2-hydroxypropyl)-4-(4-(2-aminoacetyl)piperazin-1-yl)-3-(2H-tetrazol-5-yl)benzene-1,2-disulfonamide] | 3.45 | 0.78 | 0.78 | 1.56 | 1.56 | 2.00 | 0.57 | 6.56 | 0.78 | 10.1
NC[C@@H](O)CNS(=O)(=O)c1ccc(N2CCC(O)CC2)c(-c2nn[nH]n2)c1S(N)(=O)=O [Example 120, (R)-N1-(3-amino-2-hydroxypropyl)-4-(4-hydroxypiperidin-1-yl)-3-(2H-tetrazol-5-yl)benzene-1,2-disulfonamide] | 0.56 | 1.56 | 1.56 | 3.13 | 1.56 | 1.00 | 0.26 | 0.76 | 1.56 | 0.79
NC[C@@H](O)CNS(=O)(=O)c1ccc(N2CC[C@@H](CN)C2)c(-c2nn[nH]n2)c1S(N)(=O)=O [Example 121, N1-((R)-3-amino-2-hydroxypropyl)-4-((S)-3-(aminomethyl)pyrrolidin-1-yl)-3-(2H-tetrazol-5-yl)benzene-1,2-disulfonamide] | 58.7 | 1.56 | 1.56 | 0.78 | 6.25 | 2.00 | 4.54 | 66.8 | 3.13 | 30.4
NC[C@@H](O)CNS(=O)(=O)c1ccc(N2CCNC(CO)C2)c(-c2nn[nH]n2)c1S(N)(=O)=O (stereo partly drawn) [Example 122, N1-((R)-3-amino-2-hydroxypropyl)-4-(3-(hydroxymethyl)piperazin-1-yl)-3-(2H-tetrazol-5-yl)benzene-1,2-disulfonamide] | 14.3 | 0.20 | 0.39 | 0.78 | 1.56 | 2.00 | 3.34 | 24.4 | 0.78 | 6.86
NC[C@@H](O)CNS(=O)(=O)c1ccc(N2CCC(CNCCO)CC2)c(-c2nn[nH]n2)c1S(N)(=O)=O [Example 123, (R)-N1-(3-amino-2-hydroxypropyl)-4-(4-(((2-hydroxyethyl)amino)methyl)piperidin-1-yl)-3-(2H-tetrazol-5-yl)benzene-1,2-disulfonamide] | 10.8 | 0.39 | 0.39 | 1.56 | 1.56 | 2.00 | 0.25 | 6.18 | 0.78 | 7.51
NC[C@@H](O)CNS(=O)(=O)c1ccc(N2CC[C@@H](N)C2)c(-c2nn[nH]n2)c1S(N)(=O)=O [Example 125, N1-((R)-3-amino-2-hydroxypropyl)-4-((R)-3-aminopyrrolidin-1-yl)-3-(2H-tetrazol-5-yl)benzene-1,2-disulfonamide] | 88.1 | 0.78 | 3.13 | 1.56 | 6.25 | 2.00 | 10.9 | 61.4 | 3.13 | 53.9
NC[C@@H](O)CNS(=O)(=O)c1ccc(N2CC[C@H](N)C2)c(-c2nn[nH]n2)c1S(N)(=O)=O [Example 126, N1-((R)-3-amino-2-hydroxypropyl)-4-((S)-3-aminopyrrolidin-1-yl)-3-(2H-tetrazol-5-yl)benzene-1,2-disulfonamide] | 200 | 1.56 | 3.13 | 0.78 | 6.25 | 2.00 | 7.7 | 124 | 3.13 | 32.5

Source: patent US11207312B2, “Metallo-beta-lactamase inhibitors and methods of use thereof” (priority 2017, dated 2021)
